Test results taken from US9994509B2, “Inhibitors of viral replication, their process of preparation and their therapeutical uses” (HIVIH, priority 2013, dated 2018).
Where two headings read alike, the source gives them in different places.

Test system: NL4-3 strain of HIV-1
Test: HIV-1 replication assay: cyto-protection of MT4 cells infected with NL4-3 virus, CellTiter-Glo viability readout
Format: cell-based
Method: The antiviral activity, particularly against HIV, of compounds according to the invention is evaluated by the protocol described below.
Preparation of Virus stock of the NL4-3 strain of HIV-1 (Adachi et al, J Virol, 1986, 59(2):284-91).
The virus was prepared as described in Lopez et al (Lopez et al, Proc Natl Acad Sci USA., 2006, 103(40):14947-52, by transfecting 2×10^6 293 T cells (CRL-1573, ATCC) with following modifications: 6 μg of NL4-3 proviral DNA molecular clone were mixed with X-tremeGENE 9 DNA transfection reagent from Roche, and used according to manufacturer's instructions. Twenty four hours later, cells were washed and fresh medium added. Forty eight hours after transfection, cell supernatants were harvested, filtered through 0.45-μm-pore-size filters, quantified for HIV-1 p24 antigen by using an Innotest HIV antigen mAb assay (Ingen) according to manufacturer's instructions, and used in infection experiments.
Serial dilutions of compounds to be tested were prepared in complete RPMI medium from 10 mM DMSO stock solutions, and distributed in a volume of 20 μl in 96 well tissue-culture treated plates (Costar 3917), in order to get 0.5% DMSO final concentration in each well, after the addition of infected cells. Control wells contained also 0.5% DMSO final concentration but no compound.
MT4 cells (from the NIH AIDS Research and Reference Reagent Program) in RPMI complete medium were counted (10×10^6 cells per well in Falcon 353047 Multiwell™ 24 well) and infected for 2 hours at 37°, at a multiplicity of infection (moi) of 0.0001-0.00001. Cells were then centrifuged for 3 min at 3000 rpm, and washed two times in 1 ml PBS to remove viruses that have not entered the cells. Infected cells were resuspended in complete RPMI at 1.25×10^6 cells/ml, and 80 μl of infected cells were distributed in each well containing compounds to be tested or control wells. The plates were then incubated at 37° C. for 5 days.
Assay used to measure the inhibition of HIV replication by the compounds (according to Gregg S. Jones et al., Antimicrobial Agents and Chemotherapy, 2009, 53 (3): 1194-1203).
After 5 days of incubation, microplates were equilibrated to room temperature for 30 min and then 50 μl of CellTiter-Glo reagent (Promega Biosciences, Inc., Madison Wis., USA) were added to each well. Cell lysis was carried out at room temperature during 10 min and luminescence was read on a Fluoroskan (Thermo Scientific).
The EC50, or effective concentration 50, is the concentration of compound leading to 50% of cyto-protection in a CellTiter-Glo® viability assay based on MT4 cells infected with NL4-3 virus (table 1).

[1] = Human immunodeficiency virus 1, NL43, 120 h, concentration leading to 50% of cyto-protection, MT4 cells infected with NL4-3 virus, 5 days incubation, CellTiter-Glo, read-out: EC50

Cc1ccc(C2CC2)c(-c2ccc3c(c2C)CCCO3)c1[C@H](OC(C)(C)C)C(=O)O (atropisomer, axis not shown) [Example 38, (S)-tert-butoxy-[3-cyclopropyl-6-methyl-2-(5-methyl-chroman-6-yl)-phenyl]-acetic acid]
EC50 [1]: 3 nM

Cc1ccc(C2CC2)c(-c2ccc3c(c2C)CCCO3)c1[C@H](OC1CC1)C(=O)O (atropisomer, axis not shown) [Example 40, (S)-cyclopropoxy-[3-cyclopropyl-6-methyl-2-(5-methyl-chroman-6-yl)-phenyl]-acetic acid]
EC50 [1]: 14 nM

Cc1ccc(C2CC2)c(-c2cc(F)c3c(c2C)CCCO3)c1[C@H](OC(C)(C)C)C(=O)O (atropisomer, axis not shown) [Example 41, (S)-tert-butoxy-[3-cyclopropyl-2-(8-fluoro-5-methyl-chroman-6-yl)-6-methyl-phenyl]-acetic acid]
EC50 [1]: 6 nM

Cc1ccc(C2CC2)c(-c2cc(F)c3c(c2C)CCCO3)c1[C@H](OC1CC1)C(=O)O (atropisomer, axis not shown) [Example 44, (S)-cyclopropoxy-[3-cyclopropyl-2-(8-fluoro-5-methyl-chroman-6-yl)-6-methyl-phenyl]-acetic acid]
EC50 [1]: 17 nM

Cc1ccc([C@@H]2C[C@@H]2C)c(-c2ccc3c(c2)CCCO3)c1C(OC(C)(C)C)C(=O)O (relative stereo) [Example 26, tert-Butoxy-[2-chroman-6-yl-6-methyl-3-(cis-2-methyl-cyclopropyl)-phenyl]-acetic acid]
EC50 [1]: 300 nM

Cc1ccc(C2CC2)c(-c2ccc3c(c2)CCCO3)c1C(OC(C)(C)C)C(=O)O (stereo not drawn) [Example 1, 2-(tert-butoxy)-2-[3-cyclopropyl-2-(3,4-dihydro-2H-1-benzopyran-6-yl)-6-methylphenyl]acetic acid]
EC50 [1]: 17 nM

CC(C)(C)OC(C(=O)O)c1c(C(F)(F)F)ccc(C2CC2)c1-c1ccc2c(c1)CCCO2 (stereo not drawn) [Example 2, 2-(tert-butoxy)-2-[3-cyclopropyl-2-(3,4-dihydro-2H-1-benzopyran-6-yl)-6-(trifluoromethyl)phenyl]acetic acid]
EC50 [1]: 90 nM

C=C(C)c1ccc(C)c(C(OC(C)(C)C)C(=O)O)c1-c1ccc2c(c1)CCCO2 (stereo not drawn) [Example 4, 2-(tert-butoxy)-2-[2-(3,4-dihydro-2H-1-benzopyran-6-yl)-3-isopropenyl-6-methylphenyl]acetic acid]
EC50 [1]: 34 nM

Cc1ccc(C(C)C)c(-c2ccc3c(c2)CCCO3)c1C(OC(C)(C)C)C(=O)O (stereo not drawn) [Example 5, 2-(tert-butoxy)-2-[2-(3,4-dihydro-2H-1-benzopyran-6-yl)-3-isopropyl-6-methylphenyl]acetic acid]
EC50 [1]: 23 nM

CC(C)(C)OC(C(=O)O)c1c(C(F)(F)F)ccc(C2CCCC2)c1-c1ccc2c(c1)CCCO2 (stereo not drawn) [Example 6, 2-(tert-butoxy)-2-[3-(cyclopentyl)-2-(3,4-dihydro-2H-1-benzopyran-6-yl)-6-(trifluoromethyl)phenyl]acetic acid]
EC50 [1]: 270 nM

COc1c(-c2nc3ccccc3[nH]2)cc(C(F)(F)F)c(C(OC(C)(C)C)C(=O)O)c1-c1ccc2c(c1)CCCO2 (stereo not drawn) [Example 7, 2-[4-(1H-1,3-benzodiazol-2-yl)-2-(3,4-dihydro-2H-1-benzopyran-6-yl)-3-methoxy-6-(trifluoromethyl)phenyl]-2-(tert-butoxy)acetic acid]
EC50 [1]: 62 nM

C=C(C)c1ccc(C(F)(F)F)c(C(OC(C)(C)C)C(=O)O)c1-c1ccc2c(c1)CCCO2 (stereo not drawn) [Example 8, 2-(tert-butoxy)-2-[2-(3,4-dihydro-2H-1-benzopyran-6-yl)-3-(prop-1-en-2-yl)-6-(trifluoromethyl)phenyl]acetic acid]
EC50 [1]: 190 nM

C=Cc1ccc(C(F)(F)F)c(C(OC(C)(C)C)C(=O)O)c1-c1ccc2c(c1)CCCO2 (stereo not drawn) [Example 9, 2-(tert-butoxy)-2-[2-(3,4-dihydro-2H-1-benzopyran-6-yl)-3-ethenyl-6-(trifluoromethyl)phenyl]acetic acid]
EC50 [1]: 500 nM

CC(C)c1ccc(C(F)(F)F)c(C(OC(C)(C)C)C(=O)O)c1-c1ccc2c(c1)CCCO2 (stereo not drawn) [Example 10, 2-(tert-butoxy)-2-[2-(3,4-dihydro-2H-1-benzopyran-6-yl)-3-(propan-2-yl)-6-(trifluoromethyl)phenyl]acetic acid]
EC50 [1]: 84 nM

CCc1ccc(C(F)(F)F)c(C(OC(C)(C)C)C(=O)O)c1-c1ccc2c(c1)CCCO2 (stereo not drawn) [Example 11, 2-(tert-butoxy)-2-[2-(3,4-dihydro-2H-1-benzopyran-6-yl)-3-ethyl-6-(trifluoromethyl)phenyl]acetic acid]
EC50 [1]: 360 nM

COc1ccc(-c2c(C3CC3)ccc(C)c2C(OC(C)(C)C)C(=O)O)cc1 (stereo not drawn) [Example 12, 2-(tert-butoxy)-2-(6-cyclopropyl-4′-methoxy-3-methyl-biphenyl-2-yl]acetic acid]
EC50 [1]: 78 nM

Cc1ccc(C2CC2)c(-c2ccc3c(c2)CCCO3)c1[C@H](OC(C)(C)C)C(=O)O [Example 13, (S)-2-(tert-butoxy)-2-[3-cyclopropyl-2-(3,4-dihydro-2H-1-benzopyran-6-yl)-6-methylphenyl]acetic acid]
EC50 [1]: 8 nM

Cc1ccc(-c2c(C3CC3)ccc(C)c2C(OC(C)(C)C)C(=O)O)cc1 (stereo not drawn) [Example 14, 2-(tert-butoxy)-2-(6-cyclopropyl-3,4′-dimethyl-biphenyl-2-yl)-acetic acid]
EC50 [1]: 51 nM

Cc1ccc(C2CC2)c(-c2ccc(F)cc2)c1C(OC(C)(C)C)C(=O)O (stereo not drawn) [Example 15, 2-(tert-butoxy)-2-(6-cyclopropyl-4′-fluoro-3-methyl-biphenyl-2-yl)-acetic acid]
EC50 [1]: 340 nM

Cc1ccc(C2CC2)c(-c2ccc3c(c2C)CCCO3)c1C(OC(C)(C)C)C(=O)O (stereo not drawn) [Example 16, 2-(tert-butoxy)-2-[3-cyclopropyl-6-methyl-2-(5-methyl-chroman-6-yl)-phenyl]acetic acid]
EC50 [1]: 9 nM

Cc1ccc(C2C[C@H]2C2CC2)c(-c2ccc3c(c2)CCCO3)c1C(OC(C)(C)C)C(=O)O (stereo partly drawn) [Example 17, (trans-3-bicyclopropyl-2-yl-2-chroman-6-yl-6-methyl-phenyl)-tert-butoxy-acetic acid]
EC50 [1]: 330 nM

Cc1ccc(C2CC2)c(C2=CCC(C)(C)CC2)c1C(OC(C)(C)C)C(=O)O (stereo not drawn) [Example 18, 2-(tert-butoxy)-2-[3-cyclopropyl-2-(4,4-dimethyl-cyclohex-1-enyl)-6-methyl-phenyl]acetic acid]
EC50 [1]: 19 nM

CCOC(C(=O)O)c1c(C)ccc(C2CC2)c1-c1ccc2c(c1)CCCO2 (stereo not drawn) [Example 19, 2-(2-chroman-6-yl-3-cyclopropyl-6-methyl-phenyl)-2-ethoxy-acetic acid]
EC50 [1]: 400 nM

Cc1ccc(C2CC2)c(-c2ccc(Cl)cc2)c1C(OC(C)(C)C)C(=O)O (stereo not drawn) [Example 20, 2-(tert-butoxy)-2-(4′-chloro-6-cyclopropyl-3-methyl-biphenyl-2-yl)acetic acid]
EC50 [1]: 54 nM

Cc1ccc(C2CC2)c(-c2cc(F)c3c(c2C)CCCO3)c1C(OC(C)(C)C)C(=O)O (stereo not drawn) [Example 21, tert-butoxy-[3-cyclopropyl-2-(8-fluoro-5-methyl-chroman-6-yl)-6-methyl-phenyl]-acetic acid]
EC50 [1]: 14 nM

Cc1ccc(CC2CC2)c(-c2ccc3c(c2)CCCO3)c1C(OC(C)(C)C)C(=O)O (stereo not drawn) [Example 22, tert-Butoxy-(2-chroman-6-yl-3-cyclopropylmethyl-6-methyl-phenyl)-acetic acid]
EC50 (Human immunodeficiency virus 1, NL43, MT4, 120 h): 91 nM

Cc1ccc(C2CC2)c(-c2ccc3c(c2)CCCO3)c1C(OC1CC1)C(=O)O (stereo not drawn) [Example 23, 2-[3-cyclopropyl-2-(3,4-dihydro-2H-1-benzopyran-6-yl)-6-methylphenyl]-2-cyclopropoxyacetic acid]
EC50 [1]: 100 nM

Cc1ccc(C2CC2)c(-c2ccc3c(c2)CCCO3)c1[C@H](OC1CC1)C(=O)O [Example 24, (S)-2-[3-cyclopropyl-2-(3,4-dihydro-2H-1-benzopyran-6-yl)-6-methylphenyl]-2-cyclopropoxyacetic acid]
EC50 [1]: 42 nM

Cc1ccc(C2(C)CC2)c(-c2ccc3c(c2)CCCO3)c1C(OC(C)(C)C)C(=O)O (stereo not drawn) [Example 25, tert-butoxy-[2-chroman-6-yl-6-methyl-3-(1-methyl-cyclopropyl)-phenyl]-acetic acid]
EC50 [1]: 200 nM

O=C(O)C(OC1CC1)c1c(C(F)(F)F)ccc(C2CC2)c1-c1ccc2c(c1)CCCO2 (stereo not drawn) [Example 27, (2-chroman-6-yl-3-cyclopropyl-6-trifluoromethyl-phenyl)-cyclopropoxy-acetic acid]
EC50 [1]: 280 nM
